Measurements reported in patent publication US9925251B2, “Treatments for Mycobacterium tuberculosis” (priority 2011, dated 2018).
Entries after “also recorded” stand apart in the source; their conditions may differ. Where two headings read alike, the source gives them in different places. Starred links: 1 amine or outer side, 2 acyl side, 3 side chain; linkers in the order of their positions; H or OH if unused. Non-standard residues stand in square brackets, D forms with d. No end group written: not given here. *: point of attachment. Dpa(Dnp) = O=C([C@H](CNc1ccc([N+](=O)[O-])cc1[N+](=O)[O-])N[*:1])[*:2]; Mca = COc1ccc2c(CC(=O)*)cc(=O)oc2c1; Suc = O=C(CCC(=O)[*:2])[*:1]; Nle = CCCC[C@H](N)C(=O)O; Cbz = O=C(OCc1ccccc1)*; amc = not defined here

How the values were obtained:
[1] = target: T1, Mtb ClpP1P2 (Mycobacterium tuberculosis, UniProt P9WPC3+P9WPC5); assay type: biochemical; details: for cleavage by ClpP1P2 (in words): activator present
[2] = target: T1, Mtb ClpP1P2; test: biochemical; assay type: biochemical
[3] = target: ClpC1 ATPase (Mycobacterium tuberculosis, UniProt P9WPC9); assay type: biochemical
Chain of ClpC1 ATPase (P9WPC9 whole entry): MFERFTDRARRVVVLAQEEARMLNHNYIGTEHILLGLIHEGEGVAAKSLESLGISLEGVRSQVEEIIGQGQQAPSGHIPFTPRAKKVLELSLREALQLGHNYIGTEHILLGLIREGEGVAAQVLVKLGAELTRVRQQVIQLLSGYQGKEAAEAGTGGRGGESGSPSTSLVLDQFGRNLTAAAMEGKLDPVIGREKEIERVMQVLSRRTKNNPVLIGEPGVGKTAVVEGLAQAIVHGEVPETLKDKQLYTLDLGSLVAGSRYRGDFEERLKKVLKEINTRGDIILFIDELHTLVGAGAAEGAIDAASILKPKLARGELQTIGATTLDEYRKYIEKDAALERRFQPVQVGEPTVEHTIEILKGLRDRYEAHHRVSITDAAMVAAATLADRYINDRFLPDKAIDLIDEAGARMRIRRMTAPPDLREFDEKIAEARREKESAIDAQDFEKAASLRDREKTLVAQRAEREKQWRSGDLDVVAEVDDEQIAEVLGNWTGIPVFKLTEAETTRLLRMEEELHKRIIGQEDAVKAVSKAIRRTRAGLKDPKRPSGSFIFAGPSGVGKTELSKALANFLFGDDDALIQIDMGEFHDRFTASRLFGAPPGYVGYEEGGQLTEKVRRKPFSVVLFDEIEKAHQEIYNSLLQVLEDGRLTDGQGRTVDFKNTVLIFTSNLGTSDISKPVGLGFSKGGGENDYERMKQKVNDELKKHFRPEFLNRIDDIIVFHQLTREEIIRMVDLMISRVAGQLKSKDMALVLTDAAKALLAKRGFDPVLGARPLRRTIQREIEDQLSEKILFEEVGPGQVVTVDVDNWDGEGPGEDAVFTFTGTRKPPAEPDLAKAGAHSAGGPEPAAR

[4] = system: Msm ptet_clpP2; assay type: cell-based, Mycobacterium smegmatis; details: for growth of strain: sub-MIC concentration
[5] = target: T1, Mtb ClpP1P2; assay type: biochemical
[6] = target: T1, Mtb ClpP1P2; assay type: biochemical; details: 10 best substrates each with Met, Leu, Phe, Ala at P1; library screening
[7] = Peptide Aldehydes (0.5 mM), peptidase activity with Z-Gly-Gly-Leu-amc, maximal activation by Z-Leu-Nle-aldehyde taken as 100%
[8] = Peptide Derivatives (1 mM), peptidase activity with Z-Gly-Gly-Leu-amc, Z-Leu-Leu-aldehyde 100.0
[9] = low concentration of ATc (ClpP2 partially depleted)
[10] = substance is the substrate, Z-Gly-Gly-Leu-amc = 100

Cc1cc(=O)oc2cc(NC(=O)C(C)N)ccc12 (stereo not drawn) [Ala-amc]
RELATIVE RATES OF HYDROLYSIS (%) [1]: 0.78%

Cc1cc(=O)oc2cc(NC(=O)[C@@H](N)CC(C)C)ccc12 [Leu-amc]
RELATIVE RATES OF HYDROLYSIS (%) [1]: 0.36%

Cc1cc(=O)oc2cc(NC(=O)C(N)Cc3ccccc3)ccc12 (stereo not drawn) [Phe-amc]
RELATIVE RATES OF HYDROLYSIS (%) [1]: 0.26%

CC(C)C[C@@H](C=O)NC(=O)[C@H](CC(C)C)NC(=O)OCc1ccccc1 [Z-Leu-Leu-aldehyde]
Kd [2]: 240 µM
RELATIVE ACTIVITY (%) [2, 7]: 77.6%
RELATIVE ACTIVITY (%) [2, 8]: 100.0%
stimulation of ClpP1P2 activity (in words) ([2]; against Z-Gly-Gly-Leu-AMC): strongest stimulation

CC(C)C[C@H](NC(=O)[C@H](CC(C)C)NC(=O)OCc1ccccc1)C(=O)O [Z-Leu-Leu]
Kd [2]: 2200 µM
RELATIVE ACTIVITY (%) ([2]; Active enzyme diluted (200x) without activator, then activator re-added): 96.0%
RELATIVE ACTIVITY (%) ([2]; Active enzyme diluted (200x), with activator): 100.0%
RELATIVE ACTIVITY (%) ([2]; Active enzyme diluted (200x), without activator): 1.2%
RELATIVE ACTIVITY (%) [2, 8]: 18.5%
stimulation of ClpP1P2 activity (in words) ([2]; against Z-Gly-Gly-Leu-AMC): could also activate ClpP1P2
effect on ClpC1 ATPase activity (in words) [3]: did not influence

CC(C)C[C@@H](CO)NC(=O)OCc1ccccc1 [Z-Leu-alcohol]
RELATIVE ACTIVITY (%) [2]: 2.4%

CC(C)C[C@H](NC(=O)OCc1ccccc1)C(=O)O [Z-Leu]
RELATIVE ACTIVITY (%) [2]: 5.3%
stimulation of ClpP1P2 activity (in words) [2]: much smaller stimulation

NCC[C@H](O)C(=O)N[C@@H]1C[C@H](N)[C@@H](O[C@H]2O[C@H](CN)[C@@H](O)[C@H](O)[C@H]2O)[C@H](O)[C@H]1O[C@H]1O[C@H](CO)[C@@H](O)[C@H](N)[C@H]1O [amikacin]
growth of strain ([4]; high concentration of ATc): no effect on growth
growth of strain [4, 9]: significantly inhibited the growth

O=C(N[C@H](CO)[C@H](O)c1ccc([N+](=O)[O-])cc1)C(Cl)Cl [chloramphenicol]
viability, low versus high ATc ([4]; sublethal concentration): no difference in viability

O=c1oc(Cl)c(Cl)c2ccccc12 [dichloroisocoumarin]
inhibition of ClpP1P2 activity (in words) [5]: sensitive; also recorded: completely inhibit

Oc1c(Cl)cc(Cl)c(Cl)c1Cc1c(O)c(Cl)cc(Cl)c1Cl [hexachlorophene]
effect on ClpC1 ATPase activity (in words) [3]: inhibits
concentration at which the inhibitor works ([3]; inhibition of ClpC1 ATPase activity): 5 to 10 mM

[H]/N=C(/N)N[C@H]1[C@H](O)[C@@H](O)[C@H](O[C@@H]2O[C@@H](C)[C@](O)(C=O)[C@H]2O[C@@H]2O[C@@H](CO)[C@H](O)[C@@H](O)[C@@H]2NC)[C@@H](N/C(N)=N\[H])[C@@H]1O [streptomycin]
growth of strain ([4]; high concentration of ATc): no effect on growth
growth of strain [4, 9]: significantly inhibited the growth

Ac-Nle-Pro-Nle-Asp-amc
RELATIVE RATES OF HYDROLYSIS (%) [1, 10]: 36.0%

Ala-Ala-Phe-amc
RELATIVE RATES OF HYDROLYSIS (%) [1, 10]: 87.0%

Asp-amc
RELATIVE RATES OF HYDROLYSIS (%) [1]: 0.1%

Cbz-AP[Nle]D-aldehyde
RELATIVE ACTIVITY (%) [2, 7]: 0.8%

Cbz-Gly-Gly-Leu
RELATIVE ACTIVITY (%) [2, 8]: 3.7%

Cbz-Gly-Leu-Leu
stimulation of ClpP1P2 activity (in words) ([2]; against Z-Gly-Gly-Leu-AMC): much smaller stimulation

Cbz-Phe-Tyr-aldehyde
RELATIVE ACTIVITY (%) [2, 7]: 1.3%

Cbz-Val-Phe-aldehyde
RELATIVE ACTIVITY (%) [2, 7]: 1.9%
stimulation of ClpP1P2 activity (in words) ([2]; against Z-Gly-Gly-Leu-AMC): did not show any stimulatory capacity

Mca-GHQQYAMK-Dpa(Dnp)-amide (Mca-GHQQYAMK[Dpa(Dnp)]-NH2)
cleavage by ClpP1P2 (in words) ([1]; substance is the substrate): could cleave

Mca-GNQQYKMK-Dpa(Dnp)-amide (Mca-GNQQYKMK[Dpa(Dnp)]-NH2)
cleavage by ClpP1P2 (in words) ([1]; substance is the substrate): could cleave

Mca-GNTQFKRR-Dpa(Dnp)-amide (Mca-GNTQFKRR[Dpa(Dnp)]-NH2)
cleavage by ClpP1P2 (in words) ([1]; substance is the substrate): could cleave

Mca-KKPTPIQLN-Dpa(Dnp)-amide (Mca-KKPTPIQLN[Dpa(Dnp)]-NH2)
cleavage by ClpP1P2 (in words) ([1]; substance is the substrate): could cleave

N-acetyl-Pro-Lys-Met-aminomethylcoumarin [PKM]
Norm RFU [6]: 1497

Suc-Ala-Ala-Phe-amc
RELATIVE RATES OF HYDROLYSIS (%) [1, 10]: 42.0%

Suc-Ala-Ala-Pro-Ala-amc (Suc-AAPA-amc; reading uncertain)
RELATIVE RATES OF HYDROLYSIS (%) [1, 10]: 0.08%

Suc-Ala-Leu-Pro-Phe-amc (Suc-ALPF-amc; reading uncertain)
RELATIVE RATES OF HYDROLYSIS (%) [1, 10]: 0.12%

Suc-Leu-Leu-Val-Tyr-amc (Suc-LLVY-amc; reading uncertain)
RELATIVE RATES OF HYDROLYSIS (%) [1, 10]: 0.8%

Suc-Leu-Tyr-amc
RELATIVE RATES OF HYDROLYSIS (%) [1, 10]: 11.5%

Z-Ala-Ala-Ala-amc
RELATIVE RATES OF HYDROLYSIS (%) [1, 10]: 3.6%

Z-Gly-Gly-Arg-amc
RELATIVE RATES OF HYDROLYSIS (%) [1, 10]: 0.55%

Z-Gly-Gly-Leu-amc
RELATIVE RATES OF HYDROLYSIS (%) [1, 10]: 100.0%

Z-Gly-Leu
RELATIVE ACTIVITY (%) [2, 8]: 4.8%
stimulation of ClpP1P2 activity (in words) ([2]; against Z-Gly-Gly-Leu-AMC): much smaller stimulation

Z-Leu-Leu-Arg-amc
RELATIVE RATES OF HYDROLYSIS (%) [1, 10]: 0.25%

Z-Leu-Leu-Glu-amc
RELATIVE RATES OF HYDROLYSIS (%) [1, 10]: 0.35%

Z-Leu-Leu-Leu-amc
RELATIVE RATES OF HYDROLYSIS (%) [1, 10]: 0.15%

Z-Leu-Leu-alcohol
RELATIVE ACTIVITY (%) [2, 8]: 17.6%
stimulation of ClpP1P2 activity (in words) ([2]; against Z-Gly-Gly-Leu-AMC): could also activate ClpP1P2

Z-Leu-Leu-amc
RELATIVE RATES OF HYDROLYSIS (%) [1, 10]: 4.7%

Z-Leu-Leu-leucinal
stimulation of ClpP1P2 activity (in words) ([2]; against Z-Gly-Gly-Leu-AMC): significantly less active

Z-Leu-Nle-aldehyde
RELATIVE ACTIVITY (%) [2, 7]: 100.0%

Z-Phe-Val-Arg-amc
RELATIVE RATES OF HYDROLYSIS (%) [1, 10]: 0.18%

Z-Pro-Nlee-Asp-aldehyde
RELATIVE ACTIVITY (%) [2, 7]: 1.2%
stimulation of ClpP1P2 activity (in words) ([2]; against Z-Gly-Gly-Leu-AMC): did not show any stimulatory capacity
